Test [1] deals with T1, KRas-mediated phosphorylation of ERK in MKN1 cells (Homo sapiens, UniProt P01116).
T1 construct: pERK HTRF read-out
Put plainly: Inhibition of KRas-mediated phosphorylation of ERK (HTRF), MKN1 cells. To be noted: MKN1 cells (KRas WT); HTRF pERK; 3 h incubation. The test is classed as cell-based. As for the experimental part: Inhibition of KRas Phosphorylation of ERK (HTRF) by Exemplary Compounds of Formula (Ia) or (Ib)
Cisbio HTRF Advanced pERK Assay Catalog #64AERPEH • Cells: MKN1, PSN1 • Procedure: • 1. Day 1: Seed 6,000 cells/well −25 μl/well in 384-well white solid bottom plate; RPM1_10% FBS. Incubate overnight at 37 °C/5% CO2. • 2.
A general note: TR-FRET usually uses a lanthanide donor and a delayed reading to cut background.

The target in test [2] is T2, KRas-mediated phosphorylation of ERK in H358 cells (Homo sapiens, UniProt P01116, G12C).
T2 construct: pERK HTRF read-out
Briefly: Inhibition of KRas-mediated phosphorylation of ERK (HTRF), H358 cells. The test is classed as cell-based. To be noted: HTRF pERK, 3 h incubation.

The target in test [3] is T3, KRas-mediated phosphorylation of ERK in A549 cells (Homo sapiens, UniProt P01116, G12S).
T3 construct: pERK HTRF read-out
Put plainly: Inhibition of KRas-mediated phosphorylation of ERK (HTRF), A549 cells. The test is classed as cell-based. To be noted: HTRF pERK, 3 h incubation.

The target in test [4] is T4, KRas WT (Homo sapiens, UniProt P01116).
T4 construct: Biotinylated KRas (corresponding to amino acids 1-169, produced at Accelegan Inc.); biotin (biotinylated); purchased Accelegan Inc
Put plainly: KRas binding assay, TR-FRET displacement of Cy5 labelled tracer. To be noted: 60-minute incubation at room temperature, 1% DMSO, pH 7.5. The method in brief:
(§1)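 Assay buffer was HEPES (50 mM, pH 7.5) with MgCl2 (5 mM), DTT (1 mM) and Tween-20 (0.005%). Biotinylated KRas spanning residues 1-169 met tracer, terbium streptavidin and compound (1% DMSO, final) for 60 minutes at ambient temperature before reading. POC values were fitted for IC50.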

Test [5] deals with T5, KRas G12C (Homo sapiens, UniProt P01116, G12C).
T5 construct: Biotinylated KRas (corresponding to amino acids 1-169, produced at Accelegan Inc.); biotin (biotinylated); purchased Accelegan Inc
The test is described as above. The note with it: 60-minute incubation at room temperature, 1% DMSO, pH 7.5. Put shortly: as §1

Test [6] concerns the target T6, KRas G12S (Homo sapiens, UniProt P01116, G12S).
T6 construct: Biotinylated KRas (corresponding to amino acids 1-169, produced at Accelegan Inc.); biotin (biotinylated); purchased Accelegan Inc
The test is described as above. The note with it: 60-minute incubation at room temperature, 1% DMSO, pH 7.5. The method in brief:
as §1

T6 sequence (P01116 1-169 isoform P01116-2 G12S): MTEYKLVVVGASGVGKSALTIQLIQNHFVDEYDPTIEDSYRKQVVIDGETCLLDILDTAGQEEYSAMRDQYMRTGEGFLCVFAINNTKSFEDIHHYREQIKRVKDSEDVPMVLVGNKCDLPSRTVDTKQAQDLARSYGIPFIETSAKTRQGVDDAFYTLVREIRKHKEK
T4 sequence (P01116 1-169 isoform P01116-2): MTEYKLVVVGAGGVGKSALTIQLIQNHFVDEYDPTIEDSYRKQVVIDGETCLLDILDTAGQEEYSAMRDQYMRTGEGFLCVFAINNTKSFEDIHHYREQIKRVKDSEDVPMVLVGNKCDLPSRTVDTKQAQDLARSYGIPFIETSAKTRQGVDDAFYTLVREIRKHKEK
T5 sequence (P01116 1-169 isoform P01116-2 G12C): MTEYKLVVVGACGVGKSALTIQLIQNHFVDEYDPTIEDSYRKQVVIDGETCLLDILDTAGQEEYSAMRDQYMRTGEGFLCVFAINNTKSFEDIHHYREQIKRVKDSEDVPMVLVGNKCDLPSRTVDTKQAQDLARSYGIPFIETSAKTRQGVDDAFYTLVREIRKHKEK
T2 sequence (P01116 1-188 isoform P01116-2 G12C): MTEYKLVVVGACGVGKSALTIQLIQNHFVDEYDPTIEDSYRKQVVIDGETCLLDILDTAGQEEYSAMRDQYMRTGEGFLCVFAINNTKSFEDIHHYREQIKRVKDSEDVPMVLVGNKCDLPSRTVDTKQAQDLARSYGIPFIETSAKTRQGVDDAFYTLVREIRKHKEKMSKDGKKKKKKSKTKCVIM
T1 sequence (P01116 1-188 isoform P01116-2): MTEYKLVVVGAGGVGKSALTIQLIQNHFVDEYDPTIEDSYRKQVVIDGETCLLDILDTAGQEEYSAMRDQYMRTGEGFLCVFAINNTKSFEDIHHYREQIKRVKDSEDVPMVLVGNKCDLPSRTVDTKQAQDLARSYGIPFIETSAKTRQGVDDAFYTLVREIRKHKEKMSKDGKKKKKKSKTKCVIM
T3 sequence (P01116 1-188 isoform P01116-2 G12S): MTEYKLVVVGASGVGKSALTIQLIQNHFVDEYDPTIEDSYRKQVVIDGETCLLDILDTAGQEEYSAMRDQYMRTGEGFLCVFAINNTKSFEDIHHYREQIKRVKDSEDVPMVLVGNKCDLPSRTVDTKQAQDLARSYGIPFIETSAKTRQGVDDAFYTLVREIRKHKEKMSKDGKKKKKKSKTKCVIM

A word on the IC50: it is the point on the concentration scale where inhibition reaches its midpoint. The low end stands for inhibition by little substance, the high end for a need for much substance. Regarding `CC(=O)N(C)C(=O)[C@H]1CCCN(c2nc(OC[C@@]34CCCN3C[C@H](F)C4)nc3c(F)c(-c4ccc(F)c5sc(N)c(C#N)c45)c(Cl)cc23)CC1` (atropisomer, axis not shown; (aS)) [Example 256, (S)—N-acetyl-1-((S)-7-(2-amino-3-cyano-7-fluorobenzo[b]thiophen-4-yl)-6-chloro-8-fluoro-2-(((2R,7aS)-2-fluorotetrahydro-1H-pyrrolizin-7a(5H)-yl)methoxy)quinazolin-4-yl)-N-methylazepane-4-carboxamide], the IC50 in test [1] was determined as 19 nM; in test [2] it was 8 nM; in test [3], 3 nM; in test [4], 4 nM; in test [5] it was 5 nM; in test [6], 2 nM.
With `CC(=O)N(C)C(=O)CCCN(C)c1nc(OC[C@@]23CCCN2C[C@H](F)C3)nc2c(F)c(-c3ccc(F)c4sc(N)c(C#N)c34)c(Cl)cc12` (atropisomer, axis not shown; (aS)) [Example 260, N-acetyl-4-(((S)-7-(2-amino-3-cyano-7-fluorobenzo[b]thiophen-4-yl)-6-chloro-8-fluoro-2-(((2R,7aS)-2-fluorotetrahydro-1H-pyrrolizin-7a(5H)-yl)methoxy)quinazolin-4-yl)(methyl)amino)-N-methylbutanamide], the IC50 in test [1] is 36 nM; in test [2] it was 18 nM; in test [3] it was 6 nM; in test [4] it was 4 nM; in test [5] it was less than 2 nM; in test [6], less than 2 nM.
Turning to `CCc1c(F)ccc2cc(O)cc(-c3ncc4c(N5CCN(C(=O)n6ccc(C)n6)C6(CC6)C5)nc(OC[C@@]56CCCN5C[C@H](F)C6)nc4c3F)c12` (single isomer, unassigned) [Example 78], the IC50 in test [1] is 90 nM; in test [2], 1250 nM; in test [3], 3820 nM; in test [4] it was 25 nM; in test [5], 128 nM; in test [6], 146 nM.
With `CCc1c(F)ccc2cc(O)cc(-c3ncc4c(N5CCN(C(=O)n6nccn6)CC5)nc(OC[C@@]56CCCN5C[C@H](F)C6)nc4c3F)c12` (single isomer, unassigned) [Example 152], the IC50 in test [1] is 251 nM; in test [2], 83 nM; in test [3], 2180 nM; in test [4] it was 39 nM; in test [5], 73 nM; in test [6], 84 nM.
Take `CN(CCN(C)c1nc(OC[C@@]23CCCN2C[C@H](F)C3)nc2c(F)c(-c3ccc(F)c4sc(N)c(C#N)c34)c(Cl)cc12)C(=O)n1nccn1` (single isomer, unassigned) [Example 202]: the IC50 in test [1] was 142 nM; in test [2] it was 23 nM; in test [3] it was 1480 nM; in test [4], 4 nM; in test [5], less than 2 nM; in test [6], 2 nM.
For the molecule `CN(CCN(C)c1nc(OC[C@@]23CCCN2C[C@H](F)C3)nc2c(F)c(-c3ccc(F)c4sc(N)c(C#N)c34)c(Cl)cc12)C(=O)n1ccnn1` (single isomer, unassigned) [Example 203], the IC50 in test [1] was 101 nM; in test [2], 1 nM; in test [3] it was 195 nM; in test [4] it was 4 nM; in test [5], less than 2 nM; in test [6], 3 nM.
Turning to `CCc1c(F)ccc2cc(O)cc(-c3ncc4c(N(C)CCN(C)C(=O)n5nccn5)nc(OC[C@@]56CCCN5C[C@H](F)C6)nc4c3F)c12` (single isomer, unassigned) [Example 207], the IC50 was 1390 nM in test [1]; 34 nM in test [2]; 6650 nM in test [3]; 238 nM in test [4]; 22 nM in test [5]; 66 nM in test [6].
In the case of `CCc1c(F)ccc2cc(O)cc(-c3ncc4c(N(C)CCN(C)C(=O)n5ccnn5)nc(OC[C@@]56CCCN5C[C@H](F)C6)nc4c3F)c12` (single isomer, unassigned) [Example 208], the IC50 was determined as 854 nM in test [1]; 4 nM in test [2]; 3980 nM in test [3]; 171 nM in test [4]; 4 nM in test [5]; 74 nM in test [6].
Turning to `CCc1c(F)ccc2cc(O)cc(-c3ncc4c(N5CCC(C(=O)n6ccc(C)n6)CC5)nc(OC[C@@]56CCCN5C[C@H](F)C6)nc4c3F)c12` [Example 1, (1-(7-(8-ethyl-7-fluoro-3-hydroxynaphthalen-1-yl)-8-fluoro-2-(((2R,7aS)-2-fluorotetrahydro-1H-pyrrolizin-7a(5H)-yl)methoxy)pyrido[4,3-d]pyrimidin-4-yl)piperidin-4-yl)(3-methyl-1H-pyrazol-1-yl)methanone], the IC50 in test [1] stood at 4000 nM; in test [2], 3720 nM; in test [3] it was 109 nM; in test [4], 63 nM; in test [5], 77 nM; in test [6], 36 nM.
As to `CCc1c(F)ccc2cc(O)cc(-c3ncc4c(N5CCC(C(=O)n6cccn6)CC5)nc(OC[C@@]56CCCN5C[C@H](F)C6)nc4c3F)c12` [Example 4, (1-(7-(8-ethyl-7-fluoro-3-hydroxynaphthalen-1-yl)-8-fluoro-2-(((2R,7aS)-2-fluorotetrahydro-1H-pyrrolizin-7a(5H)-yl)methoxy)pyrido[4,3-d]pyrimidin-4-yl)piperidin-4-yl)(1H-pyrazol-1-yl)methanone], the IC50 in test [1] came to 2040 nM; in test [2] it was 5440 nM; in test [3] it was 69 nM; in test [4] it was 51 nM; in test [5] it was 22 nM; in test [6], 9 nM.
On to `CCc1c(F)ccc2cc(O)cc(-c3ncc4c(N5CCC(C(=O)OC)CC5)nc(OC[C@@]56CCCN5C[C@H](F)C6)nc4c3F)c12` [Example 16, methyl 1-(7-(8-ethyl-7-fluoro-3-hydroxynaphthalen-1-yl)-8-fluoro-2-(((2R,7aS)-2-fluorotetrahydro-1H-pyrrolizin-7a(5H)-yl)methoxy)pyrido[4,3-d]pyrimidin-4-yl)piperidine-4-carboxylate], for which the IC50 in test [1] was 70 nM; in test [2], 428 nM; in test [3], 337 nM; in test [4], 23 nM; in test [5] it was 54 nM; in test [6] it was 44 nM.
As for `CCc1c(F)ccc2cc(O)cc(-c3ncc4c(N5CCC(C(=O)Oc6ccccc6)CC5)nc(OC[C@@]56CCCN5C[C@H](F)C6)nc4c3F)c12` [Example 39, phenyl 1-(7-(8-ethyl-7-fluoro-3-hydroxynaphthalen-1-yl)-8-fluoro-2-(((2R,7aS)-2-fluorotetrahydro-1H-pyrrolizin-7a(5H)-yl)methoxy)pyrido[4,3-d]pyrimidin-4-yl)piperidine-4-carboxylate], the 50% inhibitory concentration (IC50) in test [1] worked out at 1360 nM; in test [2], 808 nM; in test [3], 6550 nM; in test [4] it was 195 nM; in test [5] it was 13 nM; in test [6] it was 1590 nM.
